In ChEMBL document CHEMBL1145498, “A systematic interaction map of validated kinase inhibitors with Ser/Thr kinases” (Proc Natl Acad Sci U S A, 2007):

molecular target: Dual specificity protein kinase CLK3 (Homo sapiens) (UniProt P49761)
Sequence (P49761 whole entry, looked up): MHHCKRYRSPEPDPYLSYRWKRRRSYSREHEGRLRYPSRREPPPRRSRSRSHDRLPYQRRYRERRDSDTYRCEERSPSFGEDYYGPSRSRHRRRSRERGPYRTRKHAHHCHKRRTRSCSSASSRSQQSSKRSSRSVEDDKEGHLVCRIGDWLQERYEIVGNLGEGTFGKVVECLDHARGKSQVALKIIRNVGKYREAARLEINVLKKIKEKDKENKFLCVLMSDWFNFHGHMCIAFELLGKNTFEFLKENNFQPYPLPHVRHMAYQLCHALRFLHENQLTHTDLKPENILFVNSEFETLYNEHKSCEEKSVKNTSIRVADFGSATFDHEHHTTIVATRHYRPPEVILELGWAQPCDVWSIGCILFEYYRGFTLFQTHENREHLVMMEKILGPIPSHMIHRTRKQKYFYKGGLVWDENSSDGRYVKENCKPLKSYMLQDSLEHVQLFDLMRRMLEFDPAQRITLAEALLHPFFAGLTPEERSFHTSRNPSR

ΔTm [°C]	SMILES
2.3	O=C1C=C2C(=Nc3c2c2c(c4c3=NC3=C4CCC=C3)C=NC=2)CC1
1	O=c1c(-c2ccc(O)cc2)coc2cc(O)cc(O)c12
3.5	O=C1Nc2ccc(I)cc2/C1=C1/Nc2ccccc2/C1=N\O

SMILES	ΔTm [°C]
NC(=O)c1ccc(-c2nc(-c3ccc4c(c3)OCCO4)c(-c3ccccn3)[nH]2)cc1	0.1

molecular target: Calcium/calmodulin-dependent protein kinase type 1G (Homo sapiens) (UniProt Q96NX5)
Sequence (Q96NX5 whole entry): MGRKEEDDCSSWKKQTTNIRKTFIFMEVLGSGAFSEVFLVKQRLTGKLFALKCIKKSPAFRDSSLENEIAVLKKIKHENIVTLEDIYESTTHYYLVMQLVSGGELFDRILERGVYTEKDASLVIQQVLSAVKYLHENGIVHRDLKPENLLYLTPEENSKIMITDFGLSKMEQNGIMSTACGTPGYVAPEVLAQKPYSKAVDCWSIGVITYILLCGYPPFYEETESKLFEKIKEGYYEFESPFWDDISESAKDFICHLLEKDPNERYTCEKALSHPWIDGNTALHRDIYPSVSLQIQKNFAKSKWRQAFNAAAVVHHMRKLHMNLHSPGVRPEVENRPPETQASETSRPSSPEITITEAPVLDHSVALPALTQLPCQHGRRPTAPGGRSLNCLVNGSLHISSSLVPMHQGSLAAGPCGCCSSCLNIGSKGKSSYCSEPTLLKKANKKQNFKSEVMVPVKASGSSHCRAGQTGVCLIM

ΔTm [°C]	SMILES
3.6	O=C1C=C2C(=Nc3c2c2c(c4c3=NC3=C4CCC=C3)C=NC=2)CC1
-0.1	O=c1c(-c2ccc(O)cc2)coc2cc(O)cc(O)c12
0.5	O=C1Nc2ccc(I)cc2/C1=C1/Nc2ccccc2/C1=N\O

SMILES	ΔTm [°C]
NC(=O)c1ccc(-c2nc(-c3ccc4c(c3)OCCO4)c(-c3ccccn3)[nH]2)cc1	1

molecular target: T1, Serine/threonine-protein kinase 4 (Homo sapiens) (UniProt Q13043)
T1 sequence (whole entry): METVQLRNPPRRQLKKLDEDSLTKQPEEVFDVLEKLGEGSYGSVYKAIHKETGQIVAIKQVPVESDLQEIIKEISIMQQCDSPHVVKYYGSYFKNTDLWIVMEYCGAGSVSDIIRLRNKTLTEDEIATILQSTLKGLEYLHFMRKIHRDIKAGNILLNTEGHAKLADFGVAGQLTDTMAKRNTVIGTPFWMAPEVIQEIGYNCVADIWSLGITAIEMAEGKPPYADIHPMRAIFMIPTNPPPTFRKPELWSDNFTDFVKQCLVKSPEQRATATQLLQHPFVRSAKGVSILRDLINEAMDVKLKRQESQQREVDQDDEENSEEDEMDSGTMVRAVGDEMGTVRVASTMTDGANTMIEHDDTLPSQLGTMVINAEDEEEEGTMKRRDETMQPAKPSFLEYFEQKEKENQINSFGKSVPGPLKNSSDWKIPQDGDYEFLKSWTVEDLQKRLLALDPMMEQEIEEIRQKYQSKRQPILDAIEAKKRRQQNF

ΔTm [°C]	SMILES
2.1	O=C1C=C2C(=Nc3c2c2c(c4c3=NC3=C4CCC=C3)C=NC=2)CC1
1.5	O=c1c(-c2ccc(O)cc2)coc2cc(O)cc(O)c12
9.5	O=C1Nc2ccc(I)cc2/C1=C1/Nc2ccccc2/C1=N\O

SMILES	ΔTm [°C]
NC(=O)c1ccc(-c2nc(-c3ccc4c(c3)OCCO4)c(-c3ccccn3)[nH]2)cc1	1.1

molecular target: Serine/threonine-protein kinase 10 (Homo sapiens) (UniProt O94804)
Sequence (O94804 whole entry, looked up): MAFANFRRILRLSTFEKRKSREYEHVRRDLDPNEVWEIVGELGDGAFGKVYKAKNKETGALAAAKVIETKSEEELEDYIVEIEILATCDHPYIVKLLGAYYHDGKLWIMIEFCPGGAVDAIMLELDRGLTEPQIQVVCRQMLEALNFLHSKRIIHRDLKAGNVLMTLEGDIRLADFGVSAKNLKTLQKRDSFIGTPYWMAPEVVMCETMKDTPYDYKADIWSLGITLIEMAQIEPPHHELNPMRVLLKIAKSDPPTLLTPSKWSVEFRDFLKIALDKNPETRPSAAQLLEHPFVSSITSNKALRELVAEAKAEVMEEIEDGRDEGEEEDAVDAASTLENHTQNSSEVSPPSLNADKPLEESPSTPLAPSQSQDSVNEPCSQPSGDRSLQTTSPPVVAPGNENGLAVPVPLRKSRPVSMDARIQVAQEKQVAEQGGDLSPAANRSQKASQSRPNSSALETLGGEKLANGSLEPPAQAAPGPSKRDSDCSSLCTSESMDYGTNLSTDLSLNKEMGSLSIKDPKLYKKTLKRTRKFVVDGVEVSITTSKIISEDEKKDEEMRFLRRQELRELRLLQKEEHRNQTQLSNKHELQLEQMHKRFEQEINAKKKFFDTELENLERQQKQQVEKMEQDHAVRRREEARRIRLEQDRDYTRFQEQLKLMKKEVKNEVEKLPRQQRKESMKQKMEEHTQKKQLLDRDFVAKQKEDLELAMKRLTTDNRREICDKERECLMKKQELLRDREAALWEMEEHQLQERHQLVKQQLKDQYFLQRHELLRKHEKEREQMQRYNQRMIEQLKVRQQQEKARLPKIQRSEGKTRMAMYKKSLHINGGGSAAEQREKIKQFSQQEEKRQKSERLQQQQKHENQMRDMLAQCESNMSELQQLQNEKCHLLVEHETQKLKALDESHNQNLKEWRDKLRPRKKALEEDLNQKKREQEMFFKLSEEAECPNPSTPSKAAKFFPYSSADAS

ΔTm [°C]	SMILES
3.9	O=C1C=C2C(=Nc3c2c2c(c4c3=NC3=C4CCC=C3)C=NC=2)CC1
0	O=c1c(-c2ccc(O)cc2)coc2cc(O)cc(O)c12
0	O=C1Nc2ccc(I)cc2/C1=C1/Nc2ccccc2/C1=N\O

SMILES	ΔTm [°C]
NC(=O)c1ccc(-c2nc(-c3ccc4c(c3)OCCO4)c(-c3ccccn3)[nH]2)cc1	0.4

molecular target: Cyclin-dependent kinase 6 (Homo sapiens) (UniProt Q00534)
Sequence (Q00534 whole entry): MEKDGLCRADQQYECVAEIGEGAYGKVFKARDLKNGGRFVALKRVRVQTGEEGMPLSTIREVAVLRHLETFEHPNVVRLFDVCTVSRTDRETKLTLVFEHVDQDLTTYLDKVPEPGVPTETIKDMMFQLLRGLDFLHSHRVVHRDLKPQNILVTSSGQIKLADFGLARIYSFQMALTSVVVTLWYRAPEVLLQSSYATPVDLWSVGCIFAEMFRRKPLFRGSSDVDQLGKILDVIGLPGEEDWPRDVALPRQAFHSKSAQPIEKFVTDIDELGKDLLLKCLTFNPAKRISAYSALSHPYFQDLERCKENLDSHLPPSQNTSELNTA

ΔTm [°C]	SMILES
2.7	O=C1C=C2C(=Nc3c2c2c(c4c3=NC3=C4CCC=C3)C=NC=2)CC1
0.1	O=c1c(-c2ccc(O)cc2)coc2cc(O)cc(O)c12
0.8	O=C1Nc2ccc(I)cc2/C1=C1/Nc2ccccc2/C1=N\O

SMILES	ΔTm [°C]
NC(=O)c1ccc(-c2nc(-c3ccc4c(c3)OCCO4)c(-c3ccccn3)[nH]2)cc1	0.4

molecular target: Cyclin-dependent kinase 16 (Homo sapiens) (UniProt Q00536)
Sequence (Q00536 whole entry): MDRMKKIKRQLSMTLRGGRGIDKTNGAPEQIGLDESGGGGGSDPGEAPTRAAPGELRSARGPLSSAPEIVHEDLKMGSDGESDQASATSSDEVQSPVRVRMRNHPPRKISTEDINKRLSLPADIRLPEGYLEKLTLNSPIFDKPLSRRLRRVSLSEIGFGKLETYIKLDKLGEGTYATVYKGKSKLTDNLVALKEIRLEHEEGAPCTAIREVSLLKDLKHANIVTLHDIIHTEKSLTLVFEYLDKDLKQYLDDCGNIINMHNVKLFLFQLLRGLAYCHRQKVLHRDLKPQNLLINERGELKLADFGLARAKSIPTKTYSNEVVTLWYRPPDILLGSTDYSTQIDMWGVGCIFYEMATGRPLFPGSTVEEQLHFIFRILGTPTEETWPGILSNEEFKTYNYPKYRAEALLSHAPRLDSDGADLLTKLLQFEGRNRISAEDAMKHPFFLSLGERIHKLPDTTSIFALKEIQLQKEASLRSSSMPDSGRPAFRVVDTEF

ΔTm [°C]	SMILES
0.8	O=C1C=C2C(=Nc3c2c2c(c4c3=NC3=C4CCC=C3)C=NC=2)CC1
-0.6	O=c1c(-c2ccc(O)cc2)coc2cc(O)cc(O)c12
5.6	O=C1Nc2ccc(I)cc2/C1=C1/Nc2ccccc2/C1=N\O

SMILES	ΔTm [°C]
NC(=O)c1ccc(-c2nc(-c3ccc4c(c3)OCCO4)c(-c3ccccn3)[nH]2)cc1	-0.4

molecular target: T2, Mitogen-activated protein kinase kinase kinase 5 (Homo sapiens) (UniProt Q99683)
T2 sequence (whole entry): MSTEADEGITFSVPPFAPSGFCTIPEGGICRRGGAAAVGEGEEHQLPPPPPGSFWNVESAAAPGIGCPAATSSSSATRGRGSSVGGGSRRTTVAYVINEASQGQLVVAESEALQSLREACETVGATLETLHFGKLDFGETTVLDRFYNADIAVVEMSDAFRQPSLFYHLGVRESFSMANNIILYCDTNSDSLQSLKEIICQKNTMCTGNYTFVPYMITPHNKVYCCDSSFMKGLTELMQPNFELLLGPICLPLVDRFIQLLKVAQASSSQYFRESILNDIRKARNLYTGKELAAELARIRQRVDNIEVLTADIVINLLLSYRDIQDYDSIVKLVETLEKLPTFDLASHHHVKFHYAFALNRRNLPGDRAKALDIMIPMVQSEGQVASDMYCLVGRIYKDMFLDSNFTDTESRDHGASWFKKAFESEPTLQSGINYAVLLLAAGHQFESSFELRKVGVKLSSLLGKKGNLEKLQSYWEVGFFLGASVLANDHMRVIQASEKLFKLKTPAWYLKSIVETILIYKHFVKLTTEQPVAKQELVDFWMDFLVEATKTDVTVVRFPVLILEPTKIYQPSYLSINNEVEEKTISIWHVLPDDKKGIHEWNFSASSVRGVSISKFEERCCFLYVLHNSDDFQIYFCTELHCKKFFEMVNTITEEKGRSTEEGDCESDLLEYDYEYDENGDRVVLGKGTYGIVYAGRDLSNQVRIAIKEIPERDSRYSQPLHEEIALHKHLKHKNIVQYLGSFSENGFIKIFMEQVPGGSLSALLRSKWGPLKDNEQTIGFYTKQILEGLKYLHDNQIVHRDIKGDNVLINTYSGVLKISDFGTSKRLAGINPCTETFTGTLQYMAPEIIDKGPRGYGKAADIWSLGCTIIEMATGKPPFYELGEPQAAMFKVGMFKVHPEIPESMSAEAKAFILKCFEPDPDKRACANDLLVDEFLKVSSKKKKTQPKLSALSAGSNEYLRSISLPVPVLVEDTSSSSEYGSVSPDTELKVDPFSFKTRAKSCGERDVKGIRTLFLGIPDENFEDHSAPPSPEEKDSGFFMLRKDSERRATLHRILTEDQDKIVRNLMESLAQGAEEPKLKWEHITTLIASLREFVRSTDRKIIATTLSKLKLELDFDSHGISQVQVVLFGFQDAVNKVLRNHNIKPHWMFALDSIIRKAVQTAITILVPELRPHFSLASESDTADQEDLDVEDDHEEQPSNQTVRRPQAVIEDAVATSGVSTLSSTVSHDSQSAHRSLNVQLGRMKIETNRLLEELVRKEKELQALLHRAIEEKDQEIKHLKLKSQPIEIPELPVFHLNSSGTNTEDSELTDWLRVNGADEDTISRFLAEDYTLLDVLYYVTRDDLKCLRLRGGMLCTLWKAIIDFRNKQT

ΔTm [°C]	SMILES
5.7	O=C1C=C2C(=Nc3c2c2c(c4c3=NC3=C4CCC=C3)C=NC=2)CC1
0.6	O=c1c(-c2ccc(O)cc2)coc2cc(O)cc(O)c12
5.7	O=C1Nc2ccc(I)cc2/C1=C1/Nc2ccccc2/C1=N\O

SMILES	ΔTm [°C]
NC(=O)c1ccc(-c2nc(-c3ccc4c(c3)OCCO4)c(-c3ccccn3)[nH]2)cc1	0.3

molecular target: Serine/threonine-protein kinase PLK1 (Homo sapiens) (UniProt P53350)
Sequence (P53350 whole entry): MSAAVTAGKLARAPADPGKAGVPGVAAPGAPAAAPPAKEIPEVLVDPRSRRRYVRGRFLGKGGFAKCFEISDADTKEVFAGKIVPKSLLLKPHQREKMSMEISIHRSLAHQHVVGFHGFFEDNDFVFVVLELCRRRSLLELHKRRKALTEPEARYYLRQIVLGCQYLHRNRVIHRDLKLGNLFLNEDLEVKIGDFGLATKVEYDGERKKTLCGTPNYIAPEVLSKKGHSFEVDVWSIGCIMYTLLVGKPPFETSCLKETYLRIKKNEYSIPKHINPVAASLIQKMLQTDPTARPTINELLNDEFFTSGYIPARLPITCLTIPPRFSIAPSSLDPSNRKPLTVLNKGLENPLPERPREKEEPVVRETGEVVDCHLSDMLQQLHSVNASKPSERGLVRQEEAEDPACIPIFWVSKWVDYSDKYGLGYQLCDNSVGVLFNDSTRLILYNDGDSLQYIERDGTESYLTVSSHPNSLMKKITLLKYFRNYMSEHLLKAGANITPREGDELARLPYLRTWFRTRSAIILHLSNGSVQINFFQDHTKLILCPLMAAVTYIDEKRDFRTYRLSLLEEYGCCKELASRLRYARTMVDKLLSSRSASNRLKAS

ΔTm [°C]	SMILES
11.9	O=C1C=C2C(=Nc3c2c2c(c4c3=NC3=C4CCC=C3)C=NC=2)CC1
1.4	O=c1c(-c2ccc(O)cc2)coc2cc(O)cc(O)c12
-0.7	O=C1Nc2ccc(I)cc2/C1=C1/Nc2ccccc2/C1=N\O

SMILES	ΔTm [°C]
NC(=O)c1ccc(-c2nc(-c3ccc4c(c3)OCCO4)c(-c3ccccn3)[nH]2)cc1	-0.5

molecular target: T3, Serine/threonine-protein kinase Nek2 (Homo sapiens) (UniProt P51955)
T3 sequence (whole entry): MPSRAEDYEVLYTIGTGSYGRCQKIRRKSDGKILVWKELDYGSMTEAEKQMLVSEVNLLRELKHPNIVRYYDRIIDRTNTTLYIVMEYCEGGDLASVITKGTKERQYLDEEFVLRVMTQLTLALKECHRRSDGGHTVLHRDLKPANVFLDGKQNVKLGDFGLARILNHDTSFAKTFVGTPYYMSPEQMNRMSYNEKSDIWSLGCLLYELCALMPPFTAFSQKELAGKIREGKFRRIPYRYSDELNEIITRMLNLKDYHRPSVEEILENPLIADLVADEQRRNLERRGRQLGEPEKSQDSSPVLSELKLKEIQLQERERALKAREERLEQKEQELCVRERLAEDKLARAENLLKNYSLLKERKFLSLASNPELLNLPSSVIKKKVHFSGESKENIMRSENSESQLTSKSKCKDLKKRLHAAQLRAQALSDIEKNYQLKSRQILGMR

ΔTm [°C]	SMILES
2.8	O=C1C=C2C(=Nc3c2c2c(c4c3=NC3=C4CCC=C3)C=NC=2)CC1
-0.1	O=c1c(-c2ccc(O)cc2)coc2cc(O)cc(O)c12
1.4	O=C1Nc2ccc(I)cc2/C1=C1/Nc2ccccc2/C1=N\O

SMILES	ΔTm [°C]
NC(=O)c1ccc(-c2nc(-c3ccc4c(c3)OCCO4)c(-c3ccccn3)[nH]2)cc1	1.1

molecular target: Mitogen-activated protein kinase 6 (Homo sapiens) (UniProt Q16659)
Sequence (Q16659 whole entry): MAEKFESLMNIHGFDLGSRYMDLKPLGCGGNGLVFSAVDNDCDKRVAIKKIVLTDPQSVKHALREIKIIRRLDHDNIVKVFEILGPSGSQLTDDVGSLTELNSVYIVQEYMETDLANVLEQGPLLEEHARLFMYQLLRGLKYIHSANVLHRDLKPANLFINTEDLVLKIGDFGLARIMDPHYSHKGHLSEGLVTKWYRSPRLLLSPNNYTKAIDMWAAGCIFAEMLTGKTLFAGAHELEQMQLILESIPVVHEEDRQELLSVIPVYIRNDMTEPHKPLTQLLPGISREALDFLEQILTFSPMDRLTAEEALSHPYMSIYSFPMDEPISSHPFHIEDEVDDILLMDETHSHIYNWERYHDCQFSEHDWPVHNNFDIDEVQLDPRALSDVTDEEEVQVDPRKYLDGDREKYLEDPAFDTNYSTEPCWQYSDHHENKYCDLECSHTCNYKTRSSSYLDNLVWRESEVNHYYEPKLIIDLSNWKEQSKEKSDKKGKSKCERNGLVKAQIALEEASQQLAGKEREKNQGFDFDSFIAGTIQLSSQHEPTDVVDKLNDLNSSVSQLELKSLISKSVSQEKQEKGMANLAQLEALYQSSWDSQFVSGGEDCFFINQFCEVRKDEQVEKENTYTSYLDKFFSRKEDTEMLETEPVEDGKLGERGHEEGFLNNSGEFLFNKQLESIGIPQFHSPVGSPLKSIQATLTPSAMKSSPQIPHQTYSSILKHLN

ΔTm [°C]	SMILES
1.4	O=C1C=C2C(=Nc3c2c2c(c4c3=NC3=C4CCC=C3)C=NC=2)CC1
1.7	O=c1c(-c2ccc(O)cc2)coc2cc(O)cc(O)c12
0.5	O=C1Nc2ccc(I)cc2/C1=C1/Nc2ccccc2/C1=N\O

SMILES	ΔTm [°C]
NC(=O)c1ccc(-c2nc(-c3ccc4c(c3)OCCO4)c(-c3ccccn3)[nH]2)cc1	-0.1
